# Assay results reported in patent US20090196885A1, “Cancer Treatment” (National Health Research Institutes, priority 2005, published 2009).
# System: Hep G2 hepatoma cells
# Assay: In vitro cancer cell proliferation assay (sulforhodamine B), Hep G2
# Type: cell-based
# Conditions: Homo sapiens, HepG2, 144 h; lovastatin 2 μM alone; incubation for 6 days; read-out: inhibited growth of Hep G2 cells
# Method: Hep G2 hepatoma cells were seeded in a 96-well culture plate (2000 cells/well) and cultured overnight in 100 μl of complete DMEM.
structure (smiles),measurement,value
CC[C@H](C)C(=O)O[C@H]1C[C@@H](C)C=C2C=C[C@H](C)[C@H](CC[C@@H]3C[C@@H](O)CC(=O)O3)[C@H]21 [lovastatin],inhibition at 2 µM,11.5%
